# ChEMBL document CHEMBL1201862, “PubChem BioAssay data set” (2004)
# Where “and” joins values, the source holds several entries; their conditions need not be identical. Equal entries are not always repeated. Calls of active or inactive are those of the source. Where a SMILES comes first, the peptide text is derived from it. [ ]: non-standard residue; d: D form. The star is where a group is joined. ξ: configuration not given here. Cbz = O=C(OCc1ccccc1)*; ξL = CC(C)CC(N)C(=O)O; ξP = O=C(O)C1CCCN1
# Key:
# Cytochrome P450 2C19 = Cytochrome P450 2C19 (Homo sapiens, UniProt P33261); experiment: Cytochrome panel assay with activity outcomes. Panel member name: p450-cyp2c19 Compounds with AC50 equal or less than 10 uM are considered active; format: functional; settings: read-out: AC50
# Cytochrome P450 2C19, sequence (P33261 whole entry): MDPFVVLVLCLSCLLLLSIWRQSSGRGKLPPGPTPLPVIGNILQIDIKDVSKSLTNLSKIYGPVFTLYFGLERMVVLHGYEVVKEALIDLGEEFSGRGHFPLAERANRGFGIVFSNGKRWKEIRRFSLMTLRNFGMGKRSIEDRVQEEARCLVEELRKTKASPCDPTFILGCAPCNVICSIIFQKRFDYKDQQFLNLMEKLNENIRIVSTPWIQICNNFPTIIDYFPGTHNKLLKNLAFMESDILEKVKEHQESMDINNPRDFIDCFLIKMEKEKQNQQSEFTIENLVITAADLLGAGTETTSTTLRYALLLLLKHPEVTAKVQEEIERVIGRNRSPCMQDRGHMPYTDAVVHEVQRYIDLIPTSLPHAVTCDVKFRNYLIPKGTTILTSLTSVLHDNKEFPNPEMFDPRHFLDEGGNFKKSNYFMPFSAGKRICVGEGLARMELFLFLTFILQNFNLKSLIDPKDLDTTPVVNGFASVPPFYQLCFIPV
# Cytochrome P450 2C9 = Cytochrome P450 2C9 (Homo sapiens, UniProt P11712)
# Cytochrome P450 2C9, sequence (P11712 whole entry): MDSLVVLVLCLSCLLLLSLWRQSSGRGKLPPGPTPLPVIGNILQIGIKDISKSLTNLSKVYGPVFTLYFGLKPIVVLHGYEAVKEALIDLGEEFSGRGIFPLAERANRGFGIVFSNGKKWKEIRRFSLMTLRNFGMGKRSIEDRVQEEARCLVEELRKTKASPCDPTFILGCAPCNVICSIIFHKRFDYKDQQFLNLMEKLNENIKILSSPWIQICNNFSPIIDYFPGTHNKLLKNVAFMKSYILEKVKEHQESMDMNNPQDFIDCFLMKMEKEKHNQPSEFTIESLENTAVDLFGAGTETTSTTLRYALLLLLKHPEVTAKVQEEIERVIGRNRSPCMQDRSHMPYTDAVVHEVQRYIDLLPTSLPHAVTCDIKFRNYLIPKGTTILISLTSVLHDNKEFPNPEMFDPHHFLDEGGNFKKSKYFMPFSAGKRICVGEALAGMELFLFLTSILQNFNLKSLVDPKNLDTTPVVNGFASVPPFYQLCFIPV
# Cytochrome P450 1A2 = molecular target: T1, Cytochrome P450 1A2 (Homo sapiens, UniProt P05177);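 also: PubChem cytochrome P450 panel assay, CYP1A2 panel member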
# T1 sequence (P05177 whole entry): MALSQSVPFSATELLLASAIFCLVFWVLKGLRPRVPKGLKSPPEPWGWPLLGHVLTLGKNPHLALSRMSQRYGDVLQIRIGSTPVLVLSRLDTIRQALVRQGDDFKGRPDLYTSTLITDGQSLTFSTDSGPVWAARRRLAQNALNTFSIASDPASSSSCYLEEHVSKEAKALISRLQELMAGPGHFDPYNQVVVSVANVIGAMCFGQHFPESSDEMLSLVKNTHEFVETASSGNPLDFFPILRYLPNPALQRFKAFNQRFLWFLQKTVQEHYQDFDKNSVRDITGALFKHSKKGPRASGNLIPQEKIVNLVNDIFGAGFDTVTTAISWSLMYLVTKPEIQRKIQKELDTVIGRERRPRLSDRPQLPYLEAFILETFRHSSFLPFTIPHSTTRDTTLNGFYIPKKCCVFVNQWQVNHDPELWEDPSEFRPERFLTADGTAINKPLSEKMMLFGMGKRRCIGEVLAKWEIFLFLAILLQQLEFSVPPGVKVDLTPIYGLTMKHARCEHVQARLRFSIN
# Cytochrome P450 2D6 = Cytochrome P450 2D6 (Homo sapiens, UniProt P10635);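 also: CYP2D6 member of a cytochrome P450 panel assay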
# Cytochrome P450 2D6, sequence (P10635 whole entry): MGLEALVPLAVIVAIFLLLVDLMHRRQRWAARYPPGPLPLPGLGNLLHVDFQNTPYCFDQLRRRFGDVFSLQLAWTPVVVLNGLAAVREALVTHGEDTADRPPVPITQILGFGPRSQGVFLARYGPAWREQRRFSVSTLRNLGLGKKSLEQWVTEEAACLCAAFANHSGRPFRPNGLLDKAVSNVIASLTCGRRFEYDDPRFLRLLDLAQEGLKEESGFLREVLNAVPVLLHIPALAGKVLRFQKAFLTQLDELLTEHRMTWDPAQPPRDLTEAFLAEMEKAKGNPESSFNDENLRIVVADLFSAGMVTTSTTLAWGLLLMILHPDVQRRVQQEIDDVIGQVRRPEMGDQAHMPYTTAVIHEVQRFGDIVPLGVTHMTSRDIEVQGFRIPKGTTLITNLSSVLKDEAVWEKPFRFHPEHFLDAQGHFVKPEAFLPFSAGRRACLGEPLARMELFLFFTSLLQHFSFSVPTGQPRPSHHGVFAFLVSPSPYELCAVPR
# [1] = molecular target: T2, Heat shock factor protein 1 (Mus musculus, UniProt P38532); experiment: inhibition of MG132-induced HSE-luciferase signal, confirmation, cell-based, NIH3T3, luminescence, dose retest (AID 2382); format: functional;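 also: NIH3T3 fibroblasts with HSF1-driven luciferase reporter stressed by proteasome inhibitor MG132; luminescence from HSF1-driven luciferase expression after 8 hours of MG132 stress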
# T2 sequence (P38532 whole entry): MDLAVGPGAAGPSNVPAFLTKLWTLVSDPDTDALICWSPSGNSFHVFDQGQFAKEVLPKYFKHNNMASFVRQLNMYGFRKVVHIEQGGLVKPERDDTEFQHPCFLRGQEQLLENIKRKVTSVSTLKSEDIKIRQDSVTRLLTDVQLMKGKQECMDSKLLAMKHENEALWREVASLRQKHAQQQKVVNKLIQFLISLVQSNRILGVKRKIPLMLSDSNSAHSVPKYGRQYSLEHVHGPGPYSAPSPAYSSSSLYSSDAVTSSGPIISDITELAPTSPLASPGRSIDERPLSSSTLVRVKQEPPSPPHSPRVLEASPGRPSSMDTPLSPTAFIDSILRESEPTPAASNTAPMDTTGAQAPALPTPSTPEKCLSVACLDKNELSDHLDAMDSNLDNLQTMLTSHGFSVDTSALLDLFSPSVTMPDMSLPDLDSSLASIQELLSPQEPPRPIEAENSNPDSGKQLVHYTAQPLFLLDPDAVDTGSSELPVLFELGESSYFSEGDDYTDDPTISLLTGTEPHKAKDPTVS
# Streptococcus = experiment: Group A Streptococcus viability loss, dose response, counter-screen for streptokinase expression inhibitor project, luminescence, BacTiterGlo (AID 1915); format: functional, organism-based;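 also: potency for reduction of bacterial viability or growth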
# [2] = test system: Streptococcus sp. 'group A'; experiment: growth inhibition of control SK(-) GAS strain, dose response, counter-screen for streptokinase expression inhibitor project, luminescence, kanamycin, BacTiterGlo, confirmation (AID 1900); format: functional, organism-based
# [3] = Luminescence Cell-Based Dose Retest to Confirm Inhibitors of Cancer Stem Cells. [Related pubchem assays (depositor defined):AID2717, AID2721]; format: functional; settings: Homo sapiens
# INS1 = experiment: beta cell apoptosis inhibitors, cytokine rescue, dose response, luminescence, retest (AID 449756); format: functional, cell-based; settings: Rattus norvegicus;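 also: cell death triggered by IL-1 beta plus TNF-alpha plus IFN-gamma mixture; protective hits raise ATP signal compared with cytokine alone wells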
# Cytochrome P450 3A4 = Cytochrome P450 3A4 (Homo sapiens, UniProt P08684);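 also: CYP3A4 tested as one member of a cytochrome P450 panel screen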
# Cytochrome P450 3A4, sequence (P08684 whole entry): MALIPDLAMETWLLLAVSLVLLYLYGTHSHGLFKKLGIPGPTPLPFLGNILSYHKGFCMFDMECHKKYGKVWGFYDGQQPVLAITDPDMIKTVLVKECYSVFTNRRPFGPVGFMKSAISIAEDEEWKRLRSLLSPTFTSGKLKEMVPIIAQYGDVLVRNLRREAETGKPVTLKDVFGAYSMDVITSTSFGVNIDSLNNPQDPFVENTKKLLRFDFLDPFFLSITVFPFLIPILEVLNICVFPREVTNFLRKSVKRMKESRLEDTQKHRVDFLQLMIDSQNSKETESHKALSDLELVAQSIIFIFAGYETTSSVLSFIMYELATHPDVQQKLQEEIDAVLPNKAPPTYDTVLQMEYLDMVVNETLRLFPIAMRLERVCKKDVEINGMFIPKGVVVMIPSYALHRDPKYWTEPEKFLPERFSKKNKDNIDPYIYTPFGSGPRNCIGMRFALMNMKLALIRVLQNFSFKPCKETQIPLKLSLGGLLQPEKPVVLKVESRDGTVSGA
# Paired box protein Pax-8 = Paired box protein Pax-8 (Homo sapiens, UniProt Q06710); experiment: inhibitors of PAX8-driven TPO luciferase reporter, dose response, RMG-I cells, cherry-pick (AID 687027); format: functional, cell-based;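 also: luciferase reporter driven by Pax8 target thyroperoxidase promoter measured by SteadyGlo luminescence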
# Paired box protein Pax-8, sequence (Q06710 whole entry): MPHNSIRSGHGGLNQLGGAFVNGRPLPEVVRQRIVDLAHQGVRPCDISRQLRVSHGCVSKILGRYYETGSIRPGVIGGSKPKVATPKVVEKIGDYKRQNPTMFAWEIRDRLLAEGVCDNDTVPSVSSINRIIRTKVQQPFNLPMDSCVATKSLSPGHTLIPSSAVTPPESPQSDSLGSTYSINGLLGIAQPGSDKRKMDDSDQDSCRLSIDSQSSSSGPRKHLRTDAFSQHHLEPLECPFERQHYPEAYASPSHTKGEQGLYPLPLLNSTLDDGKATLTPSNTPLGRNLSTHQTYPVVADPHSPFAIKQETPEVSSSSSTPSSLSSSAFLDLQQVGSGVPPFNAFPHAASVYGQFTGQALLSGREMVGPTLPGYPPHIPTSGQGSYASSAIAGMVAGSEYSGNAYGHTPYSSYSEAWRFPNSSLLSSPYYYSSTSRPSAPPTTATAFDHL
smiles,measurement,setting,value
O=[N+]([O-])c1cccnc1N1CCCCC1,AC50,Cytochrome P450 2C19,0.00562 µM (inconclusive)
same,AC50,Cytochrome P450 2C9,3.16 µM (inconclusive)
Cn1cccc1C(=O)N1CCC2(CC1)CCN(c1cccc(-c3ccccc3)c1)CC2,AC50,Cytochrome P450 1A2,20 µM (inconclusive)
C[C@H](CO)NC(=O)[C@H](C)[C@H]1C[C@]1(C)[C@H](NC(=O)OCc1ccccc1)c1ccccc1,AC50,Cytochrome P450 2D6,15.8 µM (inconclusive)
same,AC50,Cytochrome P450 2C9,25.1 µM (inconclusive)
COc1cc(N)ccc1C(=O)O,EC50,[1],> 195 µM (not active)
C[C@H]1CC[C@@]2(C)[C@@H](CC[C@@H]3[C@@H]2CC[C@]2(C)[C@@H](O)CC[C@@H]32)C1,EC50,Streptococcus,2.65 µM (active)
same,EC50,[2],0.643 µM (active)
CN(C(=O)C1CCOC1)c1nnc(-c2ccncc2)s1 (stereo unspecified),EC50,[1],> 195 µM (not active)
O=Nc1ccc(NOC(=O)c2ccc(Br)cc2)cc1,AC50,Cytochrome P450 2C9,25.1 µM (inconclusive)
C=CCSc1nn2c(=O)c3ccccc3nc2s1,AC50,Cytochrome P450 2D6,25.1 µM (inconclusive)
same,AC50,Cytochrome P450 2C9,25.1 µM (inconclusive)
CCC(=O)[C@@H](c1ccccc1)c1ccccn1,AC50,Cytochrome P450 1A2,5.01 µM (inconclusive)
CC(=O)Nc1ccc(C(=O)NNC(=O)CCc2ccccc2)cc1,AC50,Cytochrome P450 2C9,39.8 µM (inconclusive)
CC(Nc1nc(-c2ccc(Cl)cc2)cs1)c1nc2cc(Cl)c(N3CCCCC3)cc2n1CCOCCO (stereo unspecified),AC50,[3],1.1 µM (active)
COc1ccc(-c2sc3ccccc3c2-c2ccc(OCCN3CCCCC3)cc2)cc1,AC50,[3],0.914 µM (active)
same,AC50,INS1,8.34 µM (active)
CCOc1ccc(N2C(=O)CN=C2Nc2ccccc2Cl)cc1,AC50,Cytochrome P450 2C19,11.2 µM (inconclusive)
same,AC50,Cytochrome P450 3A4,15.8 µM (inconclusive)
CC(=CCOc1ccc2ccc(=O)oc2c1)C1=CC(=O)C(C)(C)O1,AC50,Paired box protein Pax-8,4.95 µM (active)
C[C@@H]1CCCCO[C@H](CN(C)C(=O)Cc2ccccc2)[C@H](C)CN([C@@H](C)CO)C(=O)c2cc(NC(=O)Nc3ccc(C(F)(F)F)cc3)ccc2O1,AC50,Paired box protein Pax-8,8.05 µM (active)
O=C(C[C@H]1CC[C@H]2[C@@H](COC[C@@H](O)CN2S(=O)(=O)c2ccccc2Cl)O1)N1CCC(Cc2ccccc2)CC1,AC50,Paired box protein Pax-8,23.7 µM (active)
CCCCCCc1c(O)noc1C[C@H](N)C(=O)O,AC50,Cytochrome P450 1A2,25.1 µM (inconclusive) and 31.6 µM (inconclusive)
Cc1ccc(S(=O)(=O)N(CC(=O)N/N=C/c2ccc(F)cc2)c2cccc3cccnc23)cc1,AC50,Cytochrome P450 2C9,1.58 µM (inconclusive)
Oc1ccccc1/C=N/Nc1nnn[nH]1,EC50,[1],> 195 µM (not active)
CC(C)NC(=O)CC(=O)N/N=C\c1ccccc1C(=O)O,EC50,[1],> 195 µM (not active)
C/C(=N/NC(=O)Cc1cccn1C)c1ccccc1,AC50,Cytochrome P450 2C9,25.1 µM (inconclusive)
CCOC(=O)C1=C(N)n2c(s/c(=C/c3ccccc3)c2=O)=C(C(=O)OCC)C1c1ccccc1 (stereo unspecified),AC50,Cytochrome P450 2C9,2.82 µM (inconclusive)
C/C(CC(=O)Nc1ccc(N(C)C)cc1)=N\NC(=O)Cc1csc(N)n1,EC50,[1],> 195 µM (not active)
Cc1cccc(CNc2ncncc2-c2ccc(C(=O)N(C)C)cc2)c1,AC50,Cytochrome P450 2C19,31.6 µM (inconclusive)
same,AC50,Cytochrome P450 1A2,15.8 µM (inconclusive)
COc1cccc(-c2ccc3ncnc(NCc4cccs4)c3c2)c1,AC50,Cytochrome P450 2C9,0.631 µM (inconclusive)
CCCCCCN(CCCCCC)C(=O)Cc1c(-c2ccc(Cl)cc2)[nH]c2ccc(Cl)cc12,AC50,Cytochrome P450 2C19,10 µM (inconclusive)
same,AC50,Cytochrome P450 1A2,31.6 µM (inconclusive)
CC(C)CC(NC(=O)C1CCCN1C(=O)[C@@H](C)NC(=O)OCc1ccccc1)C(=O)NCC(N)=O (stereo partly specified) (Cbz-[dA][ξP][ξL]G-NH2),EC50,[1],> 195 µM (not active)
O=C(O)c1cc([N+](=O)[O-])ccc1NCCCc1ccccc1 [5-NITRO-2-PHENYLPROPYLAMINOBENZOIC ACID [NPPB]],AC50,Cytochrome P450 1A2,39.8 µM (inconclusive)
